The values below come from patent US12030904B2 (priority 2020, dated 2024).

In general, EC50 refers to the concentration giving half of the maximal effect. For orientation: CC50 means the concentration at which the toxic effect on the cells reaches its halfway point. Read a high CC50 as better tolerance by the cells.

Series [1] has as its system Recombinant Respiratory Syncytial virus strain A2 containing the firefly luciferase reporter (RSV-Fluc). The experiment in a line: microbe, parasite or virus in culture. In kind it is cell-based. Conditions: human respiratory syncytial virus, NHBE, read-out: RSV EC50, Table 4.
The subject of series [2] is SARS-CoV-2. Briefly: microbe, parasite or virus in culture. Conditions: Severe acute respiratory syndrome coronavirus 2, read-out: SARS EC50. In kind it is cell-based.
Series [3] can be described thus: MT4 cytotoxicity (CC50). The following applies: human, MT4 cells, MT4 CC50, Table 4.

As for `CCCCCCCCCCCCCCCCOC[C@H](COP(=O)(O)OC[C@H]1O[C@@](C#N)(c2ccc3c(N)ncnn23)[C@H](O)[C@@H]1O)OCc1ccc(OC)cc1` [Example 97, ((2R,3S,4R,5R)-5-(4-aminopyrrolo[2,1-f][1,2,4]triazin-7-yl)-5-cyano-3,4-dihydroxytetrahydrofuran-2-yl)methyl ((R)-3-(hexadecyloxy)-2-((4-methoxybenzyl)oxy)propyl) hydrogen phosphate], the EC50 worked out at 40 nM in series [1] and 99 nM in series [2]. This compound also registered a CC50 in series [3] of 652 nM.

Turning to `CCCCCCCCCCCCCCCCCCOC[C@H](COP(=O)(O)OC[C@H]1O[C@@](C#N)(c2ccc3c(N)ncnn23)[C@H](O)[C@@H]1O)OCc1ccc(F)c(C#N)c1` [Example 98, [(2R,3S,4R,5R)-5-(4-aminopyrrolo[2,1-f][1,2,4]triazin-7-yl)-5-cyano-3,4-dihydroxy-tetrahydrofuran-2-yl]methyl [(2R)-2-[(3-cyano-4-fluoro-phenyl)methoxy]-3-octadecoxy-propyl] hydrogen phosphate], the EC50 in series [1] came out at 1000 nM; in series [2], 1300 nM. Moreover, the CC50 in series [3] turned out to be 8980 nM.

Regarding `CCCCCCCCCCCCCCCCCCOC[C@H](COP(=O)(O)OC[C@H]1O[C@@](C#N)(c2ccc3c(N)ncnn23)[C@H](O)[C@@H]1O)Oc1cccc(C#N)n1` [Example 100, [(2R,3S,4R,5R)-5-(4-aminopyrrolo[2,1-f][1,2,4]triazin-7-yl)-5-cyano-3,4-dihydroxy-tetrahydrofuran-2-yl]methyl [(2R)-2-[(6-cyano-2-pyridyl)oxy]-3-octadecoxy-propyl]hydrogen phosphate], the EC50 is 58 nM in series [1] and 340 nM in series [2]. Further, in series [3], the CC50 came to 1180 nM.

Turning to `CCCCCCCCCCCCCCOC[C@H](COP(=O)(O)OC[C@H]1O[C@@](C#N)(c2ccc3c(N)ncnn23)[C@H](O)[C@@H]1O)OCc1ccc(C#N)cc1F` [Example 101, [(2R,3S,4R,5R)-5-(4-aminopyrrolo[2,1-f][1,2,4]triazin-7-yl)-5-cyano-3,4-dihydroxy-tetrahydrofuran-2-yl]methyl [(2R)-2-[(4-cyano-2-fluoro-phenyl)methoxy]-3-tetradecoxy-propyl] hydrogen phosphate], the values for the EC50 in series [1] and in series [2] were 20 nM and 130 nM, respectively. This compound had a CC50 in series [3] of 5110 nM.

Consider `CCCCCCCCCCCCCCCOC[C@H](COP(=O)(O)OC[C@H]1O[C@@](C#N)(c2ccc3c(N)ncnn23)[C@H](O)[C@@H]1O)OCc1ccc(C#N)cc1F` [Example 102, [(2R,3S,4R,5R)-5-(4-aminopyrrolo[2,1-f][1,2,4]triazin-7-yl)-5-cyano-3,4-dihydroxy-tetrahydrofuran-2-yl]methyl [(2R)-2-[(4-cyano-2-fluoro-phenyl)methoxy]-3-pentadecoxy-propyl] hydrogen phosphate], for which the EC50 in series [1] amounted to 21 nM; in series [2] it was 120 nM. The CC50 in series [3] was 4500 nM.

Regarding `CCCCCCCCCCCCCCCCCCOC[C@H](COP(=O)(O)OC[C@H]1O[C@@](C#N)(c2ccc3c(N)ncnn23)[C@H](O)[C@@H]1O)OCc1ccc(C#N)cc1Cl` [Example 103, [(2R,3S,4R,5R)-5-(4-Aminopyrrolo[2,1-f][1,2,4]triazin-7-yl)-5-cyano-3,4-dihydroxy-tetrahydrofuran-2-yl]methyl [(2R)-2-[(2-chloro-4-cyano-phenyl)methoxy]-3-octadecoxy-propyl] hydrogen phosphate], the values for the EC50 in series [1] and in series [2] were 387 nM and 10000 nM, respectively. Also, the cytotoxic concentration (CC50) in series [3] is 50000 nM.

For the compound `CCCCCCCCCCCCCCCCCCOC[C@H](COP(=O)(O)OC[C@H]1O[C@@](C#N)(c2ccc3c(N)ncnn23)[C@H](O)[C@@H]1O)OCc1cc(C#N)ccc1OC` [Example 104, [(2R,3S,4R,5R)-5-(4-Aminopyrrolo[2,1-f][1,2,4]triazin-7-yl)-5-cyano-3,4-dihydroxy-tetrahydrofuran-2-yl]methyl [(2R)-2-[(5-cyano-2-methoxy-phenyl)methoxy]-3-octadecoxy-propyl] hydrogen phosphate], the EC50 in series [1] came out at 222 nM; in series [2] it was 1300 nM. Besides, in series [3], the CC50 was found to be 2550 nM.

As for `CCCCCCCCCCCCCCCCCCOC[C@H](COP(=O)(O)OC[C@H]1O[C@@](C#N)(c2ccc3c(N)ncnn23)[C@H](O)[C@@H]1O)OCc1ccc(C#N)cc1C(F)(F)F` [Example 105, [(2R,3S,4R,5R)-5-(4-Aminopyrrolo[2,1-f][1,2,4]triazin-7-yl)-5-cyano-3,4-dihydroxy-tetrahydrofuran-2-yl]methyl [(2R)-2-[[4-cyano-2-(trifluoromethyl)phenyl]methoxy]-3-octadecoxy-propyl] hydrogen phosphate], the EC50 in series [1] amounted to 553 nM; in series [2], 10000 nM. Besides, the midpoint of cytotoxicity in series [3], the CC50, lay at 20100 nM.

Turning to `CCCCCCCCCCCCCCCCCCOC[C@H](COP(=O)(O)OC[C@H]1O[C@@](C#N)(c2ccc3c(N)ncnn23)[C@H](O)[C@@H]1O)OCc1cc(C#N)cc(OC)c1` [Example 106, [(2R,3S,4R,5R)-5-(4-Aminopyrrolo[2,1-f][1,2,4]triazin-7-yl)-5-cyano-3,4-dihydroxy-tetrahydrofuran-2-yl]methyl [(2R)-2-[(3-cyano-5-methoxy-phenyl)methoxy]-3-octadecoxy-propyl] hydrogen phosphate], the results for the EC50 in series [1] and in series [2] were 88 nM and 10000 nM, respectively. The compound further came in with a CC50 in series [3] of 871 nM.

Turning to `CCCCCCCCCCCCCCCCCCOC[C@H](COP(=O)(O)OC[C@H]1O[C@@](C#N)(c2ccc3c(N)ncnn23)[C@H](O)[C@@H]1O)OCc1cccc(C#N)n1` [Example 107, [(2R,3S,4R,5R)-5-(4-Aminopyrrolo[2,1-f][1,2,4]triazin-7-yl)-5-cyano-3,4-dihydroxy-tetrahydrofuran-2-yl]methyl [(2R)-2-[(6-cyano-2-pyridyl)methoxy]-3-octadecoxy-propyl] hydrogen phosphate], the EC50 in series [1] turned out to be 80 nM; in series [2], 370 nM. The compound also gave a CC50 in series [3] of 885 nM.

In the case of `CCCCCCCCCCCCCCCCCCOC[C@H](COP(=O)(O)OC[C@H]1O[C@@](C#N)(c2ccc3c(N)ncnn23)[C@H](O)[C@@H]1O)OCc1ccc(Cl)c(C#N)c1` [Example 108, [(2R,3S,4R,5R)-5-(4-aminopyrrolo[2,1-f][1,2,4]triazin-7-yl)-5-cyano-3,4-dihydroxy-tetrahydrofuran-2-yl]methyl [(2R)-2-[(4-chloro-3-cyano-phenyl)methoxy]-3-octadecoxy-propyl] hydrogen phosphate], the concentration giving a half-maximal response (EC50) in series [1] was 83 nM; in series [2], 220 nM. In series [3], this compound returned a CC50 of 713 nM.

Turning to `CCCCCCCCCCCCCCCCCOCC[C@H](COP(=O)(O)OC[C@H]1O[C@@](C#N)(c2ccc3c(N)ncnn23)[C@H](O)[C@@H]1O)OCc1ccc(C#N)cc1` [Example 111, [(2R,3S,4R,5R)-5-(4-Aminopyrrolo[2,1-f][1,2,4]triazin-7-yl)-5-cyano-3,4-dihydroxy-tetrahydrofuran-2-yl]methyl [(2R)-2-[(4-cyanophenyl)methoxy]-4-heptadecoxy-butyl] hydrogen phosphate], the EC50 in series [1] is 499 nM; in series [2], 3500 nM. This compound also came in with a CC50 in series [3] of 18900 nM.

Turning to `CCCCCCCCCCCCCCCCOC[C@H](COP(=O)(O)OC[C@H]1O[C@@](C#N)(c2ccc3c(N)ncnn23)[C@H](O)[C@@H]1O)OCc1ccc(C#N)cc1F` [Example 112, [(2R,3S,4R,5R)-5-(4-Aminopyrrolo[2,1-f][1,2,4]triazin-7-yl)-5-cyano-3,4-dihydroxy-tetrahydrofuran-2-yl]methyl [(2R)-2-[(4-cyano-2-fluoro-phenyl)methoxy]-3-hexadecoxy-propyl] hydrogen phosphate], the results for the EC50 in series [1] and in series [2] were 63 nM and 130 nM, respectively. In addition, it took 1940 nM to reach half-maximal cytotoxicity in series [3] (CC50).

With `CCCCCCCCCCCCCCCCOC[C@H](COP(=O)(O)OC[C@H]1O[C@@](C#N)(c2ccc3c(N)ncnn23)[C@H](O)[C@@H]1O)OCc1ccc(C#N)c(F)c1` [Example 113, [(2R,3S,4R,5R)-5-(4-aminopyrrolo[2,1-f][1,2,4]triazin-7-yl)-5-cyano-3,4-dihydroxy-tetrahydrofuran-2-yl]methyl [(2R)-2-[(4-cyano-3-fluoro-phenyl)methoxy]-3-hexadecoxy-propyl] hydrogen phosphate], the EC50 is 210 nM in series [1] and 1100 nM in series [2]. Besides, the midpoint of cytotoxicity in series [3], the CC50, lay at 5450 nM.

`CCCCCCCCCCCCCCCCCCOC[C@H](COP(=O)(O)OC[C@H]1O[C@@](C#N)(c2ccc3c(N)ncnn23)[C@H](O)[C@@H]1O)OCc1ccc(C#N)cc1OC` [Example 114, [(2R,3S,4R,5R)-5-(4-Aminopyrrolo[2,1-f][1,2,4]triazin-7-yl)-5-cyano-3,4-dihydroxy-tetrahydrofuran-2-yl]methyl [(2R)-2-[(4-cyano-2-methoxy-phenyl)methoxy]-3-octadecoxy-propyl] hydrogen phosphate]: the EC50 in series [1] is 93 nM; in series [2], 480 nM. This compound registered a CC50 in series [3] of 1880 nM.

In the case of `CCCCCCCCCCCCCCCCCCOC[C@H](COP(=O)(O)OC[C@H]1O[C@@](C#N)(c2ccc3c(N)ncnn23)[C@H](O)[C@@H]1O)OCc1ccc(OC)c(C#N)c1` [Example 115, [(2R,3S,4R,5R)-5-(4-Aminopyrrolo[2,1-f][1,2,4]triazin-7-yl)-5-cyano-3,4-dihydroxy-tetrahydrofuran-2-yl]methyl [(2R)-2-[(3-cyano-4-methoxy-phenyl)methoxy]-3-octadecoxy-propyl] hydrogen phosphate], the results for the EC50 in series [1] and in series [2] were 166 nM and 390 nM, respectively. This compound also came in with a CC50 in series [3] of 1460 nM.

As to `CCCCCCCCCCCCCCCCCCOC[C@H](COP(=O)(O)OC[C@H]1O[C@@](C#N)(c2ccc3c(N)ncnn23)[C@H](O)[C@@H]1O)OCc1ccc(C#N)nc1` [Example 116, [(2R,3S,4R,5R)-5-(4-aminopyrrolo[2,1-f][1,2,4]triazin-7-yl)-5-cyano-3,4-dihydroxy-tetrahydrofuran-2-yl]methyl [(2R)-2-[(6-cyano-3-pyridyl)methoxy]-3-octadecoxy-propyl] hydrogen phosphate], the EC50 in series [1] came out at 26 nM; in series [2], 170 nM. For the same compound, half-maximal cytotoxicity in series [3] (CC50) was put at 690 nM.
